In data set [1] the test system is zebrafish embryos. Briefly: Zebrafish embryo development assay. It counts as in vivo, Zebrafish (Danio rerio). On the procedure:
Animals. Zebrafish (Danio rerio) were raised, maintained and crossed as described before (Westerfield, M. University of Oregon Press, Eugene. Or., 1993). Development of embryos was studied at 28° C. and staging was determined by morphological characteristics (Kimmel, C. B., et al., Dev. Dyn. 203, 253-310 (1995)).
A translation blocking anti-ezrin morpholino oligonucleotide (MO), described and validated by Link et al. (Link, V., et al., J. Cell Sci., 119, 2073-2083 (2006)), MO1, 5′-[…] (SEQ ID NO:1), was synthesized by Gene-Tools, LCC (Philomath, Oreg.). MOs were microinjected into one to four cell stage embryos.
Zebrafish embryos were arrayed, three per well, in 96-well plates. Compounds were added at 1-33 μM concentrations. Embryos were observed, and photographed, at 70% epiboly, 24-28 hours post fertilization (hpf) and 48 hpf.

The subject of data set [2] is high ezrin expressed K7M2 cells. The data set can be described thus: Electric cell migration system, K7M2 cells. The note with it: non-toxic concentration; compared to NSC 668394. It counts as cell-based. As to the method: (§1) Anti-migration potential of the embodied compounds were validated using an electric cell migration system. High ezrin expressed K7M2 cells and low ezrin expressed K12 cells were treated with non-toxic concentrations of a compound and their corresponding anti-migration activity was measured. Data is represented as the ratio of compound K7M2 anti-migration activity divided by the K12 anti-migration activity. The X-axis details the non-toxic concentration of the compound used in the study.

Data set [3] relates to low ezrin expressed K12 cells. The data set can be described thus: Electric cell migration system, K12 cells. The format is cell-based. The note with it: non-toxic concentration. As to the method: as §1

Consider “5′-CGCGAACATTTACTGGTTTAGG (SEQ ID NO:1) (all phosphorodiamidate morpholino (PMO)) [MO1]”, for which the “embryos with epiboly defects at 90% epiboly stage” value in data set [1] (3 ng injected) is given as 42%; in data set [1] (6 ng injected), 69%; in data set [1] (12 ng injected) it was 69%.

As to `COc1ccc(CCNC2=CC(=O)c3cccnc3C2=O)cc1Cl` [GK2-057], the “anti-migratory activity on K7M2 cells” value in data set [2] is “greater anti-migratory activity”. Moreover, the “effect on K12 cell line migration” value in data set [3] is listed as “benign”.

The values above are taken from patent US9522908B2, “Ezrin inhibitors and methods of making and using” (Georgetown University, priority 2010, dated 2016).
